From patent publication US7405205B2, “Antitumor antisense sequences directed against R1 and R2 components of ribonucleotide reductase” (Lorus Therapeutics Inc., priority 1996, dated 2008)
Strand notation (5' to 3'): a small letter for the sugar, then the base; units joined by * are phosphorothioate-linked, units joined directly phosphodiester-linked; [ ] holds rarer units or linkages, { } end groups; capitals alone tell only the bases. d = 2'-deoxy (DNA)

What was measured:
Type in all cases: cell-based, human
[1] = test system: T24 bladder cell carcinoma; assay: Relative colony forming efficiency after antisense treatment (Table 13); settings: 0.2 μM antisense oligodeoxyribonucleotide phosphorothioate; T24 cells; averages of 2-8 determinations
[2] = test system: MIA PaCa-2 pancreatic cell carcinoma; assay: as above; settings: 0.2 μM antisense oligodeoxyribonucleotide phosphorothioate; MIA PaCa-2 cells; averages of 2-8 determinations
[3] = test system: PC-3 prostrate cell adenocarcinoma; assay: as above; settings: 0.2 μM antisense oligodeoxyribonucleotide phosphorothioate; PC-3 cells; averages of 2-8 determinations
[4] = test system: MDA-MB-231 breast cell adenocarcinoma; assay: Relative colony forming efficiency after antisense treatment (Table 13, FIG. 11, FIG. 12); settings: 0.2 μM antisense oligodeoxyribonucleotide phosphorothioate; MDA-MB-231 cells; averages of 2-8 determinations
Protocol: Colony forming efficiency was determined as previously reported [Huang and Wright, 1994]. The cells were cultured for 24 hours at 37° C. in growth medium with 10% fetal bovine serum. The cells were washed in 5 ml phosphate buffered saline, pH 7.2, once prior to lipofectin+/−oligonucleotide treatment.
The oligonucleotides being tested were added to cell cultures in the presence of 2.5 μg of DOTMA/DOPE (Lipofectin; Life Technologies, Inc.) for four hours. The oligonucleotide was tested at 0.2 μM unless otherwise indicated. Controls were the cultures treated with lipofectin but without the oligonucleotide. After 4 hours the medium containing the oligonucleotide was removed and washed with 5 ml of growth medium. The cells were then cultured in growth medium containing 10% fetal bovine serum for seven to ten days. Surviving cells were visualized by methylene blue staining, and colonies were scored. In some experiments cell aliquotes were removed from the culture and viability was determined using the trypan blue exclusion test [Phillips, 1973]. Results were analyzed as percent of surviving cells compared to control cells.
To test the antisense effects of many of these sequences as phosphorthioate deoxyribonucleotides, they were examined in relative colony forming experiments performed with a series of human tumor cell lines. Many of these antisense constructs, as predicted, are potent inhibitors of human tumor cell proliferation. For results obtained with cancer cells derived from the bladder, breast, lung, colon, pancreas, prostate, liver and cervix, see Table 13. In addition, in vivo studies with AS-II-626-20 were undertaken in C3H/HeN mice as reported in Table 14 and show a significant reduction in metastasis in the antisense treated mice.
Colony forming ability of MDA-MB-231 human breast cancer cells treated with 28 different antisense oligonucleotides was estimated as previously described (Choy et al., 1988). Aliquots of cell suspension were seeded into 60 mm Petri dishes and incubated at 37° C. overnight in α-MEM medium supplemented with 10% fetal bovine serum. Cells were washed in 5 ml of phosphate buffered saline, pH 7.2, prior to 0.2 μM antisense/lipofectin treatments for 4 hours. The media containing the antisense oligonucleotides were removed and cells were washed once and cultured in growth medium for 7 to 10 days. Colonies were stained with methylene blue and scored as described (Choy et al., 1988; Huang and Wright 1994). Percent inhibition was calculated by comparison with the number of colonies present in cultures grown in the absence of antisense oligonucleotides. All experiments were performed in quadruplicate. FIG. 11 is a graph of the percentage inhibition of colony formation by treatment with the various antisense oligonucleotides.
Colony forming ability of various human tumor cell lines was estimated by determining relative colony forming efficiencies (Choy et al., 1988). Cells from various cell lines were washed in 5 ml of phosphate buffered saline, pH 7.2. The cells were treated with 0.2 μM AS-I-618-20 antisense oligonucleotide/lipofectin for 4 hours. The medium containing the antisense oligonucleotide was then removed and the cells were gently washed with 5 ml of growth medium. The cells were cultured in growth medium containing 10% fetal bovine serum for seven to ten days. […] The following human tumor cell lines were evaluated: HepG2 (liver), SK-OV-3 (ovary), U87 (brain), A2058 (melanoma), H460 (lung), MDA-MB-231 (breast) and AsPC-1 (pancreas).

A549 lung cell carcinoma = assay: Relative colony forming efficiency after antisense treatment (Table 13); settings: 0.2 μM antisense oligodeoxyribonucleotide phosphorothioate; A549 cells; averages of 2-8 determinations
[5] = test system: HepG2 hepatocellular carcinoma; assay: Relative colony forming efficiency after antisense treatment (Table 13, FIG. 12); settings: 0.2 μM antisense oligodeoxyribonucleotide phosphorothioate; HepG2 cells; averages of 2-8 determinations
[6] = test system: HCT116 colon cell carcinoma; assay: Relative colony forming efficiency after antisense treatment (Table 13); settings: 0.2 μM antisense oligodeoxyribonucleotide phosphorothioate; HCT116 cells; averages of 2-8 determinations

Row | Sequence | Reduced relative colony forming efficiency, expressed as % inhibition, T24 [1] [%] | Reduced relative colony forming efficiency, expressed as % inhibition, MIA PaCa-2 [2] [%] | Reduced relative colony forming efficiency, expressed as % inhibition, PC-3 [3] [%] | Reduced relative colony forming efficiency, expressed as % inhibition, MDA-MB-231 [4] [%] | Reduced relative colony forming efficiency, expressed as % inhibition, A549 (A549 lung cell carcinoma) [%] | Reduced relative colony forming efficiency, expressed as % inhibition, HepG2 [5] [%] | Reduced relative colony forming efficiency, expressed as % inhibition, HCT116 [6] [%]
1 | TATCGCCGCCGTGAGTACAA (DNA, all phosphorothioate, methylation of C not given here) [AS-II-1768-20] | 74.56 | 60.36 | 86.36 | 91.56 | 86.8 | – | –
2 | AAACGGCTTCTCACACATAT (antisense; DNA, all phosphorothioate, methylation of C not given here) [AS-II-2151-20] | 79.83 | 62.15 | 84.86 | 95.14 | 79.19 | – | –
3 | GGCCCAGATCACCCCTAAAT (antisense; DNA, all phosphorothioate, methylation of C not given here) [AS-II-2128-20] | 83.74 | 39.23 | 88.89 | 91.3 | 87.31 | – | –
4 | TGGCTGTGCTGGTTAAAGGA (DNA, all phosphorothioate, methylation of C not given here) [AS-II-1659-20] | 74.09 | 42.54 | 81.56 | 42.86 | 54.7 | – | –
5 | AACCGGAAAAGAAAATGCCT (antisense; DNA, all phosphorothioate, methylation of C not given here) [AS-II-890-20] | 82.07 | 66.02 | 87.93 | 88.2 | 81.6 | – | –
6 | TCGCCTACTCTCTTCTCAAA (DNA, all phosphorothioate, methylation of C not given here) [AS-II-1278-20] | 65.42 | 57.05 | 85.31 | 90.68 | – | – | –
7 | ATTAAAATCTGCGTTGAAGC (DNA, all phosphorothioate, methylation of C not given here) [AS-II-1700-20] | 70.94 | 34.52 | 90.63 | 30.75 | 77.28 | – | –
8 | TGCCTCCGACCCTTCCCATT (antisense dT*dG*dC*dC*dT*dC*dC*dG*dA*dC*dC*dC*dT*dT*dC*dC*dC*dA*dT*dT) [AS-II-14-20] | 77.59 | 47.93 | 92.76 | 91.24 | – | 88.4 | –
9 | TGGCACCAACTGACTAATAT (antisense; DNA, all phosphorothioate, methylation of C not given here) [AS-II-1976-20] | – | – | 88.16 | 89.6 | – | – | –
10 | CAGAATATCGACGCAAAAGA (antisense; DNA, all phosphorothioate, methylation of C not given here) [AS-II-909-20] | 78.57 | 46.13 | 84.86 | 45.96 | 78.68 | – | –
11 | ATCCAGCGCAAGGCCCAGTC (antisense; DNA, all phosphorothioate, methylation of C not given here) [AS-II-816-20] | 73.91 | 93.21 | 94.08 | – | 78.4 | 93.08 | 88.22
12 | TTCATGGTGTGGCTAGTTGG (DNA, all phosphorothioate, methylation of C not given here) [AS-II-1438-20] | 43.7 | 42.13 | 83.96 | 69.06 | 51.27 | – | –
13 | TCAGCATCCAAGGTAAAAGA (DNA, all phosphorothioate, methylation of C not given here) [AS-II-1338-20] | 63.16 | 79.17 | 93.75 | – | 63.93 | 80.41 | 74.73
14 | TTTTAACTGGCTGTGCTGGT (DNA, all phosphorothioate, methylation of C not given here) [AS-II-1666-20] | 71.71 | 49.72 | 86.06 | 26.71 | 54.82 | – | –
15 | CCTCTGATACTCGCCTACTC (DNA, all phosphorothioate, methylation of C not given here) [AS-II-1288-20] | 56.75 | 80.71 | 93.55 | – | 61.04 | 80.41 | 66.43
16 | ACTGCCATTGTCACTGCTAT (DNA, all phosphorothioate, methylation of C not given here) [AS-II-1581-20] | 68.22 | 24.07 | 85.83 | – | 90.55 | 93.07 | 66.85
